These results are taken from patent publication US12583870B2, “Azaheteroaryl compound and application thereof” (SHANGHAI BLUERAY BIOPHARMA CO., LTD., priority 2019, dated 2026).

The test system of assay [1] is trimethylation level of histone H3K27 in G401 cells. The experiment in a line: ELISA (H3K27 trimethylation) analysis in G401 cells. The format is cell-based. The conditions noted are these: Homo sapiens, G-401, 72 hours, H3K27me3 standardized to H3. A digest of the protocol: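 Cells exposed 72 h to 10-point 3-fold dilutions, top 10 μM, 0.5% final DMSO. Acid-extracted histones assayed by ELISA (ECL) for H3K27me3, normalized to total H3 and to DMSO control; IC50 from dose-response fit.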

For assay [2], the target named is T1, EED protein (His6-tagged full-length) binding to H3K27me3 polypeptide (Homo sapiens, UniProt O75530).
T1 construct: His6-tagged full-length EED protein (441 amino acids)
T1 sequence (O75530 whole entry): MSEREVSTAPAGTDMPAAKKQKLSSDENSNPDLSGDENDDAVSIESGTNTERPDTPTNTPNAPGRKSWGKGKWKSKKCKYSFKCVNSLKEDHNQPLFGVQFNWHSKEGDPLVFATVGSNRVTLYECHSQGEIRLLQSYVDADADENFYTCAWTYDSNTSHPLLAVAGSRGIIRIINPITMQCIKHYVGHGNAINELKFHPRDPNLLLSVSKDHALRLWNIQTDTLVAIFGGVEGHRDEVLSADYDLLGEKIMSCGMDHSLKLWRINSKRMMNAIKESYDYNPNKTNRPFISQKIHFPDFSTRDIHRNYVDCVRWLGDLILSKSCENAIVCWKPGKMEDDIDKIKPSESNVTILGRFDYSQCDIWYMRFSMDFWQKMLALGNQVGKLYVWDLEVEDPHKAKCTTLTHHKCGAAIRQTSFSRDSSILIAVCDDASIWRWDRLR
The experiment in a line: AlphaScreen evaluation of blocking the binding of EED to H3K27Me3. To be noted: EED 60 nM, biotinylated H3K27me3 75 nM, 30 minutes incubation. How it is done: Firstly, compound solutions of different concentration gradients were prepared. Compound powder was dissolved in DMSO to prepare a mother liquor. 1.5 μl of the mother liquor of the compound was taken and added into 198.5 μl of a reaction buffer (25 mM HEPES (pH 8.0), 50 mM NaCl, 0.015% Tween 20, 0.5% BSA). The mixture was mixed uniformly. Then a 3-fold series dilution was carried out with the above-mentioned buffer containing 0.75% DMSO. 9 different test concentrations were provided for one same compound. 5 μL of compounds of different concentration gradients were taken and added into the ProxiPlate-384 Plus, White detection plate (PerkinElmer, 6008280) and two replicates in parallel were provided for each concentration gradient.
Secondly, a reaction for blocking the binding was carried out. The above-mentioned buffer was used to dilute His6-tagged full-length EED protein (441 amino acids) to 60 nM and biotinylated polypeptide fragment H3K27me3 (amino acids at positions 19-33) (Biotinylated-H3K27me3) to 75 nM. 5 μl of the polypeptide fragment at the concentration of 75 nM and 5 µl of the protein at the concentration of 60 nM were transferred to the detection wells containing the compound, respectively. The detection plate was sealed with the film and incubation was carried out at room temperature for 30 minutes.
Finally, the detection was carried out with the AlphaScreen method. Prior use, nickel chelate receptor beads and streptavidin donor beads (at the ratio of 1:1, Perkin Elmer, product number 6760619M) were mixed with the above-mentioned reaction buffer. Then 5 μl of the above-mentioned pre-mixed detection solution was added to each of the detection wells. The donor beads and receptor beads were both at a final concentration of 5 μg/mL. The detection plate was covered and sealed with tinfoil and placed in the dark at room temperature for 1 hour. The signal was read using the AlphaScreen detector on the Spectra max i3. AlphaScreen signals were standardlized based on the readings obtained from positive controls (maximum signal controls) and negative controls (minimum signal controls) to give the inhibition rates for compounds at different concentrations, and afterwards non-linear regression analysis was carried out using GraphPad Prism 5, inhibition curves were made based on the Dose-Response equation of Y=Bottom+(Top−Bottom)/(1+10^((Log IC50−X)*HillSlope)) and the IC50 values of each compound were obtained. […]

Assay [3] has as its system KARPAS-422 cells. The experiment in a line: Cell proliferation analysis, KARPAS-422, 13 days, CellTiter-Glo. The format is cell-based. The conditions noted are these: Homo sapiens, 312 h. A digest of the protocol: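 KARPAS-422 cells were treated with PRC2 inhibitors over 9 three-fold dilutions from 10 μM top (0.5% DMSO, duplicates) in RPMI-1640 with 15% FBS at 37 °C. Every 3–4 days cells were counted and reseeded at 1×10^4/well with fresh compound. Viability was read by CellTiter-Glo luminescence on day 13.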

With `Cc1cc2c(cc1-c1cnc(NCc3c(F)ccc4c3CCO4)n3cnnc13)C=CS2(=O)=O` [5-(5-(((5-fluoro-2,3-dihydrobenzofuran-4-yl)methyl)amino)-[1,2,4]triazolo[4,3-c]pyrimidin-8-yl)-6-methylbenzo[b]thiophene 1,1-dioxide], the half-inhibitory concentration (IC50) in assay [1] stood at 0.0009 µM; in assay [2], 0.0041 µM; in assay [3], 0.0005 µM.

As to `O=S1(=O)C=Cc2cc(-c3cnc(NCc4c(F)ccc5c4CCO5)n4cnnc34)cc(F)c21` [7-fluoro-5-(5-(((5-fluoro-2,3-dihydrobenzofuran-4-yl)methyl)amino)-[1,2,4]triazolo[4,3-c]pyrimidin-8-yl)benzo[b]thiophene 1,1-dioxide], the IC50 in assay [1] turned out to be 0.0028 µM; in assay [2], 0.0045 µM; in assay [3], 0.0005 µM.

For the compound `O=S1(=O)C(F)=Cc2cc(-c3cnc(NCc4c(F)ccc5c4[C@H]4C[C@H]4O5)n4cnnc34)ccc21` [2-fluoro-5-(5-((((1aR,6bR)-5-fluoro-1a,6b-dihydro-1H-cyclopropa[b]benzofuran-6-yl)methyl)amino)-[1,2,4]triazolo[4,3-c]pyrimidin-8-yl)benzo[b]thiophene 1,1-dioxide], the IC50 in assay [1] came out at 0.16 µM; in assay [2], 0.566 µM; in assay [3], 0.079 µM.

As for `CCc1cnc2c(-c3cnc(NCc4c(F)ccc5c4CCO5)n4cnnc34)cccn12` [8-(3-ethylimidazo[1,2-a]pyridin-8-yl)-N-((5-fluoro-2,3-dihydrobenzofuran-4-yl)methyl)-[1,2,4]triazolo[4,3-c]pyrimidin-5-amine], the half-inhibitory concentration (IC50) in assay [1] turned out to be 0.0009 µM; in assay [2], 0.0025 µM; in assay [3] it was 0.0009 µM.

`Fc1ccc2c(c1CNc1ncc(-c3cccn4cc(C(F)(F)F)nc34)c3nncn13)CCO2` [N-((5-fluoro-2,3-dihydrobenzofuran-4-yl)methyl)-8-(2-(trifluoromethyl)imidazo[1,2-a]pyridin-8-yl)-[1,2,4]triazolo[4,3-c]pyrimidin-5-amine]: the IC50 in assay [1] was determined as 0.0024 µM; in assay [2], 0.0035 µM; in assay [3], 0.0017 µM.

Regarding `COC(=O)c1ccc(-c2cnc(NCc3c(F)ccc4c3CCO4)n3cnnc23)c2nccn12` [Methyl 8-(5-(((5-fluoro-2,3-dihydrobenzofuran-4-yl)methyl)amino)-[1,2,4]triazolo[4,3-c]pyrimidin-8-yl)imidazo[1,2-a]pyridine-5-carboxylate], the values for the IC50 in assay [1], in assay [2] and in assay [3] were 0.0035 µM, 0.008 µM and 0.0051 µM, respectively.

On to `Fc1ccc2c(c1CNc1ncc(-c3ccn4ncnc4c3)c3nncn13)[C@H]1C[C@H]1O2` [8-([1,2,4]triazolo[1,5-a]pyridin-7-yl)-N-(((1aR,6bR)-5-fluoro-1a,6b-dihydro-1H-cyclopropa[b]benzofuran-6-yl)methyl)-[1,2,4]triazolo[4,3-c]pyrimidin-5-amine], for which the IC50 in assay [1] came out at 0.0073 µM; in assay [2] it was 0.0045 µM; in assay [3], 0.0077 µM.

On to `Cc1ccc(-c2cnc(NCc3c(F)ccc4c3CCO4)n3cnnc23)c2ncc(CC(N)=O)n12` [2-(8-(5-(((5-fluoro-2,3-dihydrobenzofuran-4-yl)methyl)amino)-[1,2,4]triazolo[4,3-c]pyrimidin-8-yl)-5-methylimidazo[1,2-a]pyridin-3-yl)acetamide], for which the IC50 in assay [1] turned out to be 0.003 µM; in assay [2], 0.0118 µM; in assay [3], 0.0032 µM.

Turning to `O=S1(=O)C=c2ccc(-c3cnc(NCc4c(F)ccc5c4CCO5)n4cnnc34)cc2=C1` [5-(5-(((5-fluoro-2,3-dihydrobenzofuran-4-yl)methyl)amino)-[1,2,4]triazolo[4,3-c]pyrimidin-8-yl)benzo[c]thiophene 2,2-dioxide], the half-inhibitory concentration (IC50) in assay [1] amounted to 0.0003 µM; in assay [2] it was 0.0049 µM; in assay [3], 0.0004 µM.

For `Fc1ccc2c(c1CNc1ncc(-c3ccc4nncn4c3)c3nncn13)[C@H]1C[C@H]1O2` [8-([1,2,4]triazolo[4,3-a]pyridin-6-yl)-N-(((1aR,6bR)-5-fluoro-1a,6b-dihydro-1H-cyclopropa[b]benzofuran-6-yl)methyl)-[1,2,4]triazolo[4,3-c]pyrimidin-5-amine], the results for the IC50 in assay [1], in assay [2] and in assay [3] were 0.0064 µM, 0.0042 µM and 0.0431 µM, respectively.

For `CC1=C(F)S(=O)(=O)c2ccc(-c3cnc(NCc4c(F)ccc5c4[C@H]4C[C@H]4O5)n4cnnc34)cc21` [2-fluoro-5-(5-((((1aR,6bR)-5-fluoro-1a,6b-dihydro-1H-cyclopropa[b]benzofuran-6-yl)methyl)amino)-[1,2,4]triazolo[4,3-c]pyrimidin-8-yl)-3-methylbenzo[b]thiophene 1,1-dioxide], the half-inhibitory concentration (IC50) in assay [1] is 0.022 µM; in assay [2] it was 0.0041 µM; in assay [3], 0.032 µM.

For the compound `CC1=C(C)S(=O)(=O)c2c(F)cc(-c3cnc(NCc4c(F)ccc5c4CCO5)n4cnnc34)cc21` [7-fluoro-5-(5-(((5-fluoro-2,3-dihydrobenzofuran-4-yl)methyl)amino)-[1,2,4]triazolo[4,3-c]pyrimidin-8-yl)-2,3-dimethylbenzo[b]thiophene 1,1-dioxide], the figures for the IC50 in assay [1], in assay [2] and in assay [3] were 0.014 µM, 0.002 µM and 0.0087 µM, respectively.

Turning to `Fc1ccc2c(c1CNc1ncc(-c3cccn4ccnc34)c3nncn13)CCO2` [N-((5-fluoro-2,3-dihydrobenzofuran-4-yl)methyl)-8-(imidazo[1,2-a]pyridin-8-yl)-[1,2,4]triazolo[4,3-c]pyrimidin-5-amine], the results for the half-maximal inhibitory concentration (IC50) in assay [1], in assay [2] and in assay [3] were 0.0008 µM, 0.0044 µM and 0.0015 µM, respectively.

`O=S1(=O)C=Cc2cc(-c3cnc(NCc4c(F)ccc5c4[C@@H]4C[C@@H]4O5)n4cnnc34)ccc21` [5-(5-((((1aS,6bS)-5-fluoro-1a,6b-dihydro-1H-cyclopropa[b]benzofuran-6-yl)methyl)amino)-[1,2,4]triazolo[4,3-c]pyrimidin-8-yl)benzo[b]thiophene 1,1-dioxide]: the IC50 in assay [1] amounted to 0.016 µM; in assay [2], 0.015 µM; in assay [3], 0.0038 µM.

With `CCc1cnc2c(-c3cnc(NCc4c(F)ccc5c4CCO5)n4cnnc34)ccc(C)n12` [8-(3-ethyl-5-methylimidazo[1,2-a]pyridin-8-yl)-N-((5-fluoro-2,3-dihydrobenzofuran-4-yl)methyl)-[1,2,4]triazolo[4,3-c]pyrimidin-5-amine], the half-maximal inhibitory concentration (IC50) in assay [1] came to 0.0025 µM; in assay [2], 0.003 µM; in assay [3], 0.0022 µM.

For `Fc1ccc2c(c1CNc1ncc(-c3cnn4cccnc34)c3nncn13)CCO2` [N-((5-fluoro-2,3-dihydrobenzofuran-4-yl)methyl)-8-(pyrazolo[1,5-a]pyrimidin-3-yl)-[1,2,4]triazolo[4,3-c]pyrimidin-5-amine], the concentration for half-maximal inhibition (IC50) in assay [1] came to 0.0104 µM; in assay [2], 0.0021 µM; in assay [3], 0.0097 µM.

Turning to `Cc1ccc(-c2cnc(NCc3c(F)ccc4c3CCO4)n3cnnc23)c2ncc(CCO)n12` [2-(8-(5-(((5-fluoro-2,3-dihydrobenzofuran-4-yl)methyl)amino)-[1,2,4]triazolo[4,3-c]pyrimidin-8-yl)-5-methylimidazo[1,2-a]pyridin-3-yl)ethan-1-ol], the results for the IC50 in assay [1], in assay [2] and in assay [3] were 0.0016 µM, 0.0099 µM and 0.0024 µM, respectively.

In the case of `O=S1(=O)C=Cc2cc(-c3cnc(NCc4c(F)ccc5c4CCO5)n4cnnc34)ccc21` [5-(5-(((5-fluoro-2,3-dihydrobenzofuran-4-yl)methyl)amino)-[1,2,4]triazolo[4,3-c]pyrimidin-8-yl)benzo[b]thiophene 1,1-dioxide], the concentration for half-maximal inhibition (IC50) in assay [1] was 0.0021 µM; in assay [2] it was 0.0049 µM; in assay [3], 0.0007 µM.

As to `Cc1cnc2c(-c3cnc(NCc4c(F)ccc5c4CCO5)n4cnnc34)cccn12` [N-((5-fluoro-2,3-dihydrobenzofuran-4-yl)methyl)-8-(3-methylimidazo[1,2-a]pyridin-8-yl)-[1,2,4]triazolo[4,3-c]pyrimidin-5-amine], the IC50 in assay [1] was 0.0016 µM; in assay [2] it was 0.0046 µM; in assay [3], 0.0014 µM.
